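Where inhibition never reached the appropriate level, the endpoint shown equals the highest concentration tested. Otherwise, values were interpolated linearly from a five-concentration, 48-hour dose response in 96-well plates. The concentration for 50% growth inhibition is given as GI50. TGI is the concentration that stops growth completely.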
Assays:
Assay in all cases: NCI tumour cell line growth inhibition, 48 h
DU-145 prostate = system: DU-145 prostate
COLO 205 colon = system: COLO 205 colon
CAKI-1 renal = system: CAKI-1 renal
NCI/ADR-RES ovarian = system: NCI/ADR-RES ovarian
SK-OV-3 ovarian = system: SK-OV-3 ovarian
SF-539 CNS = system: SF-539 CNS
K-562 leukemia = system: K-562 leukemia
OVCAR-5 ovarian = system: OVCAR-5 ovarian
NCI-H23 lung = system: NCI-H23 lung
MDA-MB-231 breast = system: MDA-MB-231 breast
LOX IMVI melanoma = system: LOX IMVI melanoma
BT-549 breast = system: BT-549 breast
T-47D breast = system: T-47D breast
HS 578T breast = system: HS 578T breast
UO-31 renal = system: UO-31 renal
SW-620 colon = system: SW-620 colon
SF-295 CNS = system: SF-295 CNS
TK-10 renal = system: TK-10 renal
HOP-92 NSCLC = system: HOP-92 NSCLC
HCC-2998 colon = system: HCC-2998 colon
OVCAR-8 ovarian = system: OVCAR-8 ovarian
OVCAR-4 ovarian = system: OVCAR-4 ovarian
HT29 colon = system: HT29 colon
SNB-75 CNS = system: SNB-75 CNS
SF-268 CNS = system: SF-268 CNS
SNB-19 CNS = system: SNB-19 CNS
NCI-H226 lung = system: NCI-H226 lung
ACHN renal = system: ACHN renal
U251 CNS = system: U251 CNS
IGROV1 ovarian = system: IGROV1 ovarian
HCT-15 colon = system: HCT-15 colon
MCF7 breast = system: MCF7 breast
HCT-116 colon = system: HCT-116 colon
RXF 393 renal = system: RXF 393 renal
NCI-H460 lung = system: NCI-H460 lung
A498 renal = system: A498 renal
HOP-62 NSCLC = system: HOP-62 NSCLC
OVCAR-3 ovarian = system: OVCAR-3 ovarian
SR leukemia = system: SR leukemia
786-0 renal = system: 786-0 renal
SK-MEL-2 melanoma = system: SK-MEL-2 melanoma
PC-3 prostate = system: PC-3 prostate

Brc1cccc(/C=N/Nc2nc(N/N=C/c3cccc(Br)c3)nc(N3CCOCC3)n2)c1
GI50 (DU-145 prostate): 1.31 µM
TGI (DU-145 prostate): > 100 µM
GI50 (COLO 205 colon): 1.24 µM
TGI (COLO 205 colon): > 100 µM
GI50 (CAKI-1 renal): 3.52 µM
TGI (CAKI-1 renal): > 100 µM
GI50 (NCI/ADR-RES ovarian): 3.25 µM
TGI (NCI/ADR-RES ovarian): > 100 µM
GI50 (SK-OV-3 ovarian): 14.7 µM
TGI (SK-OV-3 ovarian): 64 µM
GI50 (SF-539 CNS): 3.83 µM
TGI (SF-539 CNS): > 100 µM
GI50 (K-562 leukemia): 0.336 µM
TGI (K-562 leukemia): > 100 µM
GI50 (OVCAR-5 ovarian): > 100 µM
TGI (OVCAR-5 ovarian): > 100 µM
GI50 (NCI-H23 lung): 4.5 µM
TGI (NCI-H23 lung): > 100 µM
GI50 (MDA-MB-231 breast): 3.97 µM
TGI (MDA-MB-231 breast): > 100 µM
GI50 (LOX IMVI melanoma): 2.66 µM
TGI (LOX IMVI melanoma): > 100 µM
GI50 (BT-549 breast): 3.54 µM
TGI (BT-549 breast): 66.9 µM
GI50 (T-47D breast): 3.94 µM
TGI (T-47D breast): > 100 µM
GI50 (HS 578T breast): 3.6 µM
TGI (HS 578T breast): > 100 µM
GI50 (UO-31 renal): 1.01 µM
TGI (UO-31 renal): > 100 µM
GI50 (SW-620 colon): 0.825 µM
TGI (SW-620 colon): > 100 µM
GI50 (SF-295 CNS): 4.94 µM
TGI (SF-295 CNS): > 100 µM
GI50 (TK-10 renal): 8.75 µM
TGI (TK-10 renal): > 100 µM
GI50 (HOP-92 NSCLC): 1.24 µM
TGI (HOP-92 NSCLC): 8.92 µM
GI50 (HCC-2998 colon): 3.06 µM
TGI (HCC-2998 colon): > 100 µM
GI50 (OVCAR-8 ovarian): 5 µM
TGI (OVCAR-8 ovarian): > 100 µM
GI50 (OVCAR-4 ovarian): 4.89 µM
TGI (OVCAR-4 ovarian): > 100 µM
GI50 (HT29 colon): 0.609 µM
TGI (HT29 colon): > 100 µM
GI50 (SNB-75 CNS): 4.54 µM
TGI (SNB-75 CNS): 29.6 µM
GI50 (SF-268 CNS): 8.4 µM
TGI (SF-268 CNS): > 100 µM
GI50 (SNB-19 CNS): 12.9 µM
TGI (SNB-19 CNS): 58.7 µM
GI50 (NCI-H226 lung): 2.46 µM
TGI (NCI-H226 lung): 8.51 µM
GI50 (ACHN renal): 2.21 µM
TGI (ACHN renal): > 100 µM
GI50 (U251 CNS): 4.22 µM
TGI (U251 CNS): > 100 µM
GI50 (IGROV1 ovarian): 2.92 µM
TGI (IGROV1 ovarian): > 100 µM
GI50 (HCT-15 colon): 0.423 µM
TGI (HCT-15 colon): > 100 µM
GI50 (MCF7 breast): 2.64 µM
TGI (MCF7 breast): > 100 µM
GI50 (HCT-116 colon): 0.78 µM
TGI (HCT-116 colon): > 100 µM
GI50 (RXF 393 renal): 0.159 µM
TGI (RXF 393 renal): 1.95 µM
GI50 (NCI-H460 lung): 3.43 µM
TGI (NCI-H460 lung): > 100 µM
GI50 (A498 renal): 0.137 µM
TGI (A498 renal): 4.26 µM
GI50 (HOP-62 NSCLC): 8.07 µM
TGI (HOP-62 NSCLC): 55.6 µM
GI50 (OVCAR-3 ovarian): 3.81 µM
TGI (OVCAR-3 ovarian): > 100 µM
GI50 (SR leukemia): 0.16 µM
TGI (SR leukemia): 2.29 µM
GI50 (786-0 renal): 0.529 µM
TGI (786-0 renal): 4.78 µM
GI50 (SK-MEL-2 melanoma): 2.43 µM
TGI (SK-MEL-2 melanoma): 6.47 µM
GI50 (PC-3 prostate): 2.9 µM
TGI (PC-3 prostate): > 100 µM

Source: PubChem BioAssay (NCI)
